The values that follow come from ChEMBL document CHEMBL5038654, “Discovery of Spiro-azaindoline Inhibitors of Hematopoietic Progenitor Kinase 1 (HPK1)” (ACS Med Chem Lett, 2022).

For one data set, the target named is Cytochrome P450 3A4 (Homo sapiens, UniProt P08684). The data set can be described thus: Inhibition of CYP3A4 in human liver microsomes using testosterone as substrate by TDI- high-throughput based mass spectrometry method. The data set is classed as ADME.
Data set [1] deals with T1, Mitogen-activated protein kinase kinase kinase kinase 1 (Homo sapiens, UniProt Q92918). The data set can be described thus: Inhibition of HPK1 (unknown origin) followed by anti-GST antibody incubated for 60 mins measured after 1 hr by TR-FRET based LanthaScreen Eu-Kinase binding assay.
T1 sequence (Q92918 whole entry): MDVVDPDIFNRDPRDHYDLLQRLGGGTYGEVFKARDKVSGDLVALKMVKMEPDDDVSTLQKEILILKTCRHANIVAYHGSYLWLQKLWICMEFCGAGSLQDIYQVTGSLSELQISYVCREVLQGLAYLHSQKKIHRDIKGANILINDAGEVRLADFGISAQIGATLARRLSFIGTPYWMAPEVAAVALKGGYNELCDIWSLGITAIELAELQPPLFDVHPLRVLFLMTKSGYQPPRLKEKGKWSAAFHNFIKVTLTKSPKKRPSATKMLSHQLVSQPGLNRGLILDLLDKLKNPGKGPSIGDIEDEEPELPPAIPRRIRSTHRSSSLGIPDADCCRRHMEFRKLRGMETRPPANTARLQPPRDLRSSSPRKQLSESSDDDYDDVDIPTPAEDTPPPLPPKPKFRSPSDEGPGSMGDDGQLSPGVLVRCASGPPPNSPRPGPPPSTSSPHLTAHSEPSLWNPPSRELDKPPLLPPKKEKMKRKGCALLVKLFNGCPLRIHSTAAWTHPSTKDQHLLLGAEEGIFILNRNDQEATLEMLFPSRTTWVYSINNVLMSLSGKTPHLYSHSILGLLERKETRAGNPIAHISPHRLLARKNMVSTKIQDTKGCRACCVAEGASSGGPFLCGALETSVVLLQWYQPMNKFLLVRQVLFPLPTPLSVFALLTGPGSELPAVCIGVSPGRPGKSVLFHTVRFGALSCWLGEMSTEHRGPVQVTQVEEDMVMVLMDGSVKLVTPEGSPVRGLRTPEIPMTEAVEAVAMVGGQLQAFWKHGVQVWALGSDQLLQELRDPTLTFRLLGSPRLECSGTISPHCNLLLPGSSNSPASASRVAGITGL
In data set [2] the target is T1, Mitogen-activated protein kinase kinase kinase kinase 1. Description: Inhibition of HPK1 in human Jurkat E6.1 cells assessed as SLP76 phosphorylation incubated for 30 mins followed by anti-CD3, biotinylated anti-SLP76 and TMB substrate addition measured after 3 hrs by ELISA assay. It is filed as cell-based. For orientation: ELISA stands for enzyme-linked immunosorbent assay.

The nature of data set [3]: Apparent permeability across apical to basolateral side in dog MDCK1 cells at 10 uM by LC-MS/MS analysis. The data set is classed as ADME, cell-based, Canis lupus familiaris. The following applies: for Papp A→B at 10 µM: MDCK.
Data set [4] in a line: Metabolic stability in mouse liver microsomes assessed as intrinsic clearance followed by substrate addition incubated for 30 mins by LC-MS/MS analysis. The data set is classed as ADME, Microsome. Particulars: read-out: CLH.
A short description of data set [5]: Metabolic stability in rat liver microsomes assessed as intrinsic clearance followed by substrate addition incubated for 30 mins by LC-MS/MS analysis. The data set is classed as ADME, Microsome. The following applies: read-out: CLH.
A short description of data set [6]: Metabolic stability in human liver microsomes assessed as intrinsic clearance followed by substrate addition incubated for 30 mins by LC-MS/MS analysis. The data set is classed as ADME, Microsome. The following applies: read-out: CLH.
In data set [7] the target is T1, Mitogen-activated protein kinase kinase kinase kinase 1. The data set can be described thus: Inhibition of HPK1 (unknown origin) preincubated for 30 mins with compound followed by Biotin-SLP-76 substrate in presence of ATP incubated for 60 mins measured after 1 hr by TR-FRET based HTRF enzymatic assay.
The nature of data set [8]: Metabolic stability in rat hepatocytes assessed as hepatic clearance. The data set is classed as ADME, cell-based, Hepatocyte. Also on record: dose or concentration left out as unconfirmed.
Data set [9] is described as follows: Metabolic stability in mouse hepatocytes assessed as hepatic clearance. It is filed as ADME, cell-based, Hepatocyte. Also on record: dose or concentration left out as unconfirmed.
Data set [10] can be described thus: Metabolic stability in human hepatocytes assessed as hepatic clearance at 1 uM measured upto 3 hrs by LC-MS/MS analysis. It is filed as ADME, cell-based, Hepatocyte.
Data set [11] in a line: Oral bioavailability in female C57BL/6 mouse at 25 mg/kg measured upto 24 hrs by LC-MS/MS analysis. The data set is classed as ADME, organism-based. Particulars: in vivo.
Data set [12] is described as follows: Volume of distribution in female C57BL/6 mouse at 1 mg/kg, iv administered as bolus dose measured upto 24 hrs by LC-MS/MS analysis. It is filed as ADME, organism-based. The following applies: in vivo.
A short description of data set [13]: Blood clearance in female C57BL/6 mouse at 1 mg/kg, iv administered as bolus dose measured upto 24 hrs by LC-MS/MS analysis. It is filed as ADME, organism-based. The following applies: whole blood.
The subject of another data set is T-cell line. Description: Effects of compound on IL-2 production in human pan T-cells followed by anti-CD3/CD28-stimulation assessed as increase in IL-2 level incubated for 30 mins by ELISA method. The following applies: 0.5 h. It is filed as functional, cell-based.

Structures are written as SMILES. Some results are limits rather than exact numbers.

The term IC50 denotes the midpoint of a concentration-inhibition curve. The term Ki denotes a measure of affinity in units of concentration, obtained from inhibition or displacement. The Papp A→B is the apparent permeability from the apical to the basolateral side of a cell layer. The term bioavailability denotes dose-corrected exposure relative to a reference, in per cent. In general, Vd refers to the apparent volume that relates the amount in the body to the concentration in plasma or blood. The clearance is the volume of plasma or blood freed of the substance per unit of time. As usually defined, the EC50 is the midpoint of the concentration-response curve.

Cytochrome P450 3A4, sequence (P08684 whole entry): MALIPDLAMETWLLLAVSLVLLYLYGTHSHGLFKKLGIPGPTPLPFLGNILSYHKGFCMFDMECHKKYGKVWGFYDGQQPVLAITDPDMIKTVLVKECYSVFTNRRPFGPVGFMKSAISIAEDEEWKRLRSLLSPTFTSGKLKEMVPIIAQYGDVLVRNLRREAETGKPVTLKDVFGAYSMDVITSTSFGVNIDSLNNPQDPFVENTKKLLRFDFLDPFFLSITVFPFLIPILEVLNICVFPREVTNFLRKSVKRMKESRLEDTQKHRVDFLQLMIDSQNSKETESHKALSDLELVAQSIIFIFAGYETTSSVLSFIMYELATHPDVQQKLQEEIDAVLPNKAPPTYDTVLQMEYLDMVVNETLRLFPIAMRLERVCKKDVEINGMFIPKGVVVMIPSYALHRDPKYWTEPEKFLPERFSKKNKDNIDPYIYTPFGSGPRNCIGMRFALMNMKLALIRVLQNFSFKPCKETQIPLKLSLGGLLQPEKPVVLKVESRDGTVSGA

On Cytochrome P450 3A4, `CN(C)C(=O)c1cc(-c2cnc3c(c2)C2(CC2)CN3)ccc1N` registered an IC50 above 10000 nM. In [1], this molecule yielded a Ki of 33 nM.

Regarding `COc1ccccc1-c1c[nH]c2ncc(-c3ccc(N)c(C(=O)N(C)C)c3)cc12`, the Ki in [1] amounted to 0.4 nM.

Consider `CN(C)C(=O)c1c(N)ccc(-c2cnc3c(c2Cl)[C@]2(CC[C@H](O)C2)CN3)c1F` (racemic), for which the IC50 in [2] stood at 5000 nM. The Papp A→B at 10 µM in data set [3] worked out at 5 ×10⁻⁶ cm/s.

`CN(C)C(=O)c1cc(-c2cnc3[nH]ccc3c2)ccc1N` showed a Ki in data set [1] of 1.5 nM.

Take `CCc1c[nH]c2ncc(-c3ccc(N)c(C(=O)N(C)C)c3F)cc12`: at Cytochrome P450 3A4, half-maximal inhibition (IC50) was put at 700 nM. The predicted hepatic clearance is 80 mL/min/kg in [4], 37 mL/min/kg in [5] and 16 mL/min/kg in [6]. In data set [1], this molecule displayed a Ki of 0.47 nM.

For `CN(C)C(=O)c1c(N)ccc(-c2cnc3c(c2Cl)[C@]2(CC[C@@]4(CCCCNC4=O)C2)CN3)c1F`, in data set [2], the IC50 came to 1200 nM. Moreover, the Ki in data set [7] came out at 7.2 nM. Moreover, the Papp A→B at 10 µM in data set [3] was 6.5 ×10⁻⁶ cm/s.

For the molecule `CN(C)C(=O)c1c(N)ccc(-c2cnc3c(c2Cl)[C@]2(CC[C@](C)(C#N)C2)CN3)c1F` (racemic), the IC50 in data set [2] is 1700 nM. Also, the Papp A→B at 10 µM in data set [3] was 21 ×10⁻⁶ cm/s. In addition, in data set [1], affinity was put at a Ki of 11 nM.

`CCc1c[nH]c2ncc(-c3ccc(N)c(C(=O)N(C)C)c3)cc12`: the IC50 on Cytochrome P450 3A4 is 500 nM. Besides, the results for the predicted hepatic clearance in data set [4], in [5] and in data set [6] were 80 mL/min/kg, 25 mL/min/kg and 12 mL/min/kg, respectively. The molecule also returned a Ki in data set [1] of 2.1 nM.

For `CN(C)C(=O)c1c(N)ccc(-c2cnc3c(c2Cl)C2(CCCC2)CN3)c1F`, the IC50 in data set [2] came to 1500 nM; at Cytochrome P450 3A4, 800 nM. The Papp A→B at 10 µM in data set [3] came to 23 ×10⁻⁶ cm/s. The Ki in data set [1] came to 2.5 nM.

In the case of `CNC(=O)[C@H]1CC[C@@]2(CNc3ncc(-c4ccc(N)c(C(=O)N(C)C)c4F)c(Cl)c32)C1` (racemic), the IC50 in data set [2] came out at 7400 nM. Further, in [3], the Papp A→B at 10 µM came to 0.8 ×10⁻⁶ cm/s. The molecule further gave a Ki in data set [1] of 63 nM.

Take `CCc1c[nH]c2ncc(-c3cccc(C(=O)N(C)C)c3)cc12`: at Cytochrome P450 3A4, it took 1700 nM to reach half-maximal inhibition (IC50). In addition, the results for the predicted hepatic clearance in data set [4], in [5] and in data set [6] were 84 mL/min/kg, 43 mL/min/kg and 18 mL/min/kg, respectively. In data set [1], this molecule gave a Ki of 5.2 nM.

The molecule `CCc1c[nH]c2ncc(-c3ccc(N)c(C(=O)N(C)C)n3)cc12` gave an IC50 on Cytochrome P450 3A4 of 1600 nM. Besides, the predicted hepatic clearance was 81 mL/min/kg in data set [4], 28 mL/min/kg in data set [5] and 17 mL/min/kg in data set [6]. Besides, in data set [1], the Ki stood at 3.3 nM.

The molecule `CN(C)C(=O)c1c(N)ccc(-c2cnc3c(c2Cl)C2(CCC2)CN3)c1F` had an IC50 at Cytochrome P450 3A4 above 10000 nM.

In the case of `CN(C)C(=O)c1c(N)ccc(-c2cnc3c(c2Cl)[C@]2(CC[C@](C)(O)C2)CN3)c1F` (racemic), the IC50 in data set [2] is 2000 nM. Further, in [3], the Papp A→B at 10 µM came out at 4.1 ×10⁻⁶ cm/s. In data set [1], affinity was put at a Ki of 8.1 nM.

As for `CN(C)C(=O)c1c(N)ccc(-c2cnc3c(c2Cl)[C@]2(CC[C@](C)(O)CC2)CN3)c1F`, the IC50 in data set [2] was 3000 nM. Moreover, the Papp A→B at 10 µM in data set [3] turned out to be 5.7 ×10⁻⁶ cm/s. Further, the affinity in data set [1] corresponds to a Ki of 8.2 nM.

With `CN(C)C(=O)c1c(N)ccc(-c2cnc3c(c2Cl)[C@]2(CC[C@H](c4ncn[nH]4)C2)CN3)c1F` (racemic), in data set [2], the IC50 worked out at 15000 nM. Further, in [3], the Papp A→B at 10 µM was found to be 0.4 ×10⁻⁶ cm/s. The molecule also yielded a Ki in data set [1] of 14 nM.

Regarding `CN(C)C(=O)c1c(N)ccc(-c2cnc3c(c2Cl)[C@]2(CC[C@](C)(C(N)=O)C2)CN3)c1F`, the IC50 in data set [2] is 440 nM. Besides, the CLhep predicted in data set [8] is 18 mL/min/kg; in [9] it was 33 mL/min/kg. In addition, the CLhep predicted at 1 µM in data set [10] was 9.5 mL/min/kg. Also, the bioavailability in data set [11] amounted to 13%. Besides, the Vd in data set [12] amounted to 1.9 L/kg. The Papp in [3] (mdck1, 10 µM) was 0.3 10^-6 cm/s. The affinity in [1] corresponds to a Ki of 0.8 nM. Moreover, the clearance in [13] was found to be 57 mL/min/kg. The EC50 in the data set on T-cell line came out at 1560 nM.

Regarding `CCc1c[nH]c2ncc(-c3ccc(N)c(C(=O)N(C)C)c3)c(CC)c12`, the Ki in data set [1] stood at 2.8 nM.

Turning to `CN(C)C(=O)c1c(N)ccc(-c2cnc3c(c2Cl)[C@]2(CC[C@](C)(C(N)=O)C2)CN3)c1F` (racemic), the IC50 in [2] turned out to be 1100 nM. Further, the apical-to-basolateral permeability (Papp A→B) at 10 µM in data set [3] was determined as 0.3 ×10⁻⁶ cm/s. In [1], this molecule yielded a Ki of 2 nM.

Take `CCc1c[nH]c2ncc(-c3ccc(N)c(C(=O)N(C)C)c3)c(Cl)c12`: affinity in [1] was put at a Ki of 2.6 nM.

In the case of `CN(C)C(=O)c1c(N)ccc(-c2cnc3c(c2Cl)[C@]2(CC[C@@]4(CCCNC4=O)C2)CN3)c1F`, the IC50 in data set [2] came to 1700 nM. Also, the Ki in data set [7] turned out to be 6.5 nM. The Papp A→B at 10 µM in data set [3] came to 7.1 ×10⁻⁶ cm/s.

Take `CN(C)C(=O)c1c(N)ccc(-c2cnc3c(c2Cl)[C@]2(CC[C@H](C(N)=O)C2)CN3)c1F` (racemic): the IC50 in [2] is 14000 nM. Also, in data set [3], the Papp A→B at 10 µM worked out at 0.2 ×10⁻⁶ cm/s. Further, in data set [1], the Ki came to 1.8 nM.

On Cytochrome P450 3A4, `CCc1c(Cl)[nH]c2ncc(-c3ccc(N)c(C(=O)N(C)C)c3)cc12` showed an IC50 of 200 nM. In [1], the Ki worked out at 2.7 nM.

Molecule `CN(C)C(=O)c1cc(-c2cnc3c(c2)C2(CCC2)CN3)ccc1N` gave an IC50 at Cytochrome P450 3A4 above 10000 nM. The Ki in [1] amounted to 66 nM.

With `CCc1c[nH]c2ncc(-c3ccc(N)c(C(=O)N(C)C)c3)c(C)c12`, in [1], the affinity corresponds to a Ki of 2.4 nM.

For `CN(C)C(=O)c1c(N)ccc(-c2cnc3c(c2Cl)[C@]2(CC[C@](C)(C#N)CC2)CN3)c1F`, the IC50 in [2] worked out at 7900 nM. In [3], the Papp A→B at 10 µM came out at 26 ×10⁻⁶ cm/s.

`Cc1c(-c2ccc(N)c(C(=O)N(C)C)c2F)cnc2c1C1(CC1)CN2` had an IC50 at Cytochrome P450 3A4 of 6500 nM. This molecule came in with a Ki in data set [1] of 43 nM.

Consider `CN(C)C(=O)c1c(N)ccc(-c2cnc3c(c2Cl)[C@@]2(CC[C@@](C)(C(N)=O)C2)CN3)c1F`, for which, in [2], the IC50 was above 25000 nM. For the same molecule, the Papp A→B at 10 µM in data set [3] worked out at 0.4 ×10⁻⁶ cm/s. For the same molecule, the Ki in data set [1] was determined as 85 nM.

Regarding `CN(C)C(=O)c1cc(-c2cnc3c(c2)C2(CCCC2)CN3)ccc1N`, the midpoint of inhibition against Cytochrome P450 3A4, the IC50, lay at 9800 nM. Also, the Ki in [1] is 28 nM.
